# Residues, ends and D or L forms follow the SMILES beside them.
# Columns and labels:
# [1] = tested on: E. faecalis ATCC 29212; assay type: cell-based, Enterococcus faecalis; details: ATCC 29212, 16 h
# Description: (§1) The antimicrobial activities of the peptides were investigated against the following bacteria: E. faecalis ATCC 29212, S. epidermidis ATCC 12228, S. aureus ATCC 29213, E. coli ATCC 25922, S. typhimurium […] and S. Pullorum […]. The MICs of the peptides were determined using a modified standard microtiter dilution method as described previously[29],[38]. Briefly, the microbial strains were cultured in MHB at 37 °C to reach mid-log phase and then diluted to 0.5-1×10^6 CFU/ml. 50 μL volumes of bacteria suspension were incubated in sterile 96-well plates with 50 μl of 2-fold serially diluted peptides at different concentrations (0.25-128 μM). Cultures with or without bacterial cells was employed as positive and negative controls, respectively. […] Each measurement was reproduced at least four times using three replicates.
# [2] = tested on: S. typhimurium C7731; assay type: cell-based, Salmonella typhimurium; details: C7731, 16 h
# Description: as §1
# [3] = tested on: S. epidermidis ATCC 12228; assay type: cell-based, Staphylococcus epidermidis; details: ATCC 12228, 16 h
# Description: as §1
# [4] = tested on: S. aureus ATCC 29213; assay type: cell-based, Staphylococcus aureus; details: ATCC 29213, 16 h
# Description: as §1
# [5] = tested on: panel of microbes (Gram-negative and Gram-positive bacteria); assay type: cell-based; details: 16 h
# Description: as §1
# [6] = tested on: S. Pullorum C7913; assay type: cell-based, Salmonella Pullorum; details: C7913, 16 h
# Description: as §1
# [7] = tested on: E. coli ATCC 25922; assay type: cell-based, Escherichia coli; details: ATCC 25922, 16 h
# Description: as §1
Compound,MIC (μM) Gram-positive E. faecalis 25922 [1],MIC (μM) Gram-negative S. typhimurium 29213 [2],MIC (μM) Gram-positive S. epidermidis 7913 [3],MIC (μM) Gram-positive S. aureus 1005 [4],MICs against the panel of microbes (range) [5],MIC (μM) Gram-negative S. Pullorum 43300 [6],MIC (μM) Gram-negative E. coli 12228 [7]
NCCCC[C@H](NC(=O)CNC(=O)[C@H](CC(N)=O)NC(=O)[C@H](CCCCN)NC(=O)[C@H](Cc1c[nH]c2ccccc12)NC(=O)[C@H](CCCCN)NC(=O)[C@H](Cc1c[nH]c2ccccc12)NC(=O)[C@H](CCCCN)NC(=O)[C@@H](N)Cc1c[nH]c2ccccc12)C(=O)N[C@@H](Cc1c[nH]c2ccccc12)C(=O)N[C@@H](CCCCN)C(=O)N[C@@H](Cc1c[nH]c2ccccc12)C(=O)N[C@@H](CCCCN)C(=O)N[C@@H](Cc1c[nH]c2ccccc12)C(=O)O [C6] (H-WKWKWKNGKWKWKW-OH),16 µM,8 µM,8 µM,4 µM,2 to 16 µM,4 µM,2 µM
CC(C)C[C@H](NC(=O)[C@@H](NC(=O)[C@@H](NC(=O)[C@@H](N)CC(C)C)C(C)C)[C@@H](C)O)C(=O)N[C@H](C(=O)N[C@@H](Cc1ccccc1)C(=O)N[C@H](C(=O)NCC(=O)NCC(=O)NCC(=O)N[C@@H](Cc1c[nH]c2ccccc12)C(=O)N[C@@H](CCCCN)C(=O)N[C@@H](Cc1c[nH]c2ccccc12)C(=O)N[C@@H](CCCCN)C(=O)N[C@@H](Cc1c[nH]c2ccccc12)C(=O)N[C@@H](CCC(=O)O)C(=O)N[C@@H](CC(N)=O)C(=O)NCC(=O)N[C@@H](CCCCN)C(=O)N[C@@H](Cc1c[nH]c2ccccc12)C(=O)N[C@@H](CCCCN)C(=O)N[C@@H](Cc1c[nH]c2ccccc12)C(=O)N[C@@H](CCCCN)C(=O)N[C@@H](Cc1c[nH]c2ccccc12)C(=O)O)C(C)C)C(C)C [cCF10-C4] (H-LVTLVFVGGGWKWKWENGKWKWKW-OH),8 µM,>128 µM,>128 µM,>128 µM,,>128 µM,64 µM
"CC(C)C[C@H](NC(=O)[C@H](CCCNC(=N)N)NC(=O)CNC(=O)CNC(=O)[C@@H](N)CCCNC(=N)N)C(=O)N[C@H]1CSSC[C@@H](C(=O)N[C@H](C(=O)NCC(=O)N[C@@H](CCCNC(=N)N)C(N)=O)C(C)C)NC(=O)[C@H](C(C)C)NC(=O)[C@@H]2CSSC[C@H](NC(=O)[C@H](Cc3ccc(O)cc3)NC1=O)C(=O)N[C@@H](CCCNC(=N)N)C(=O)N[C@@H](CCCNC(=N)N)C(=O)N[C@@H](CCCNC(=N)N)C(=O)N[C@@H](Cc1ccccc1)C(=O)N2 [PG-1, reference compound]",4 µM,8 µM,16 µM,8 µM,,8 µM,2 µM
CC(C)C[C@H](NC(=O)[C@@H](NC(=O)[C@@H](NC(=O)[C@@H](N)CC(C)C)C(C)C)[C@@H](C)O)C(=O)N[C@H](C(=O)N[C@@H](Cc1ccccc1)C(=O)N[C@H](C(=O)NCC(=O)NCC(=O)NCC(=O)N[C@@H](Cc1c[nH]c2ccccc12)C(=O)N[C@@H](CCCCN)C(=O)N[C@@H](Cc1c[nH]c2ccccc12)C(=O)N[C@@H](CCCCN)C(=O)N[C@@H](Cc1c[nH]c2ccccc12)C(=O)N[C@@H](CCCCN)C(=O)N[C@@H](CC(N)=O)C(=O)NCC(=O)N[C@@H](CCCCN)C(=O)N[C@@H](Cc1c[nH]c2ccccc12)C(=O)N[C@@H](CCCCN)C(=O)N[C@@H](Cc1c[nH]c2ccccc12)C(=O)N[C@@H](CCCCN)C(=O)N[C@@H](Cc1c[nH]c2ccccc12)C(=O)O)C(C)C)C(C)C [cCF10-C6] (H-LVTLVFVGGGWKWKWKNGKWKWKW-OH),4 µM,>128 µM,32 µM,32 µM,,16 µM,4 µM
NCCCC[C@H](NC(=O)CNC(=O)[C@H](CC(N)=O)NC(=O)[C@H](CCC(=O)O)NC(=O)[C@H](Cc1c[nH]c2ccccc12)NC(=O)[C@H](CCCCN)NC(=O)[C@H](Cc1c[nH]c2ccccc12)NC(=O)[C@H](CCCCN)NC(=O)[C@@H](N)Cc1c[nH]c2ccccc12)C(=O)N[C@@H](Cc1c[nH]c2ccccc12)C(=O)N[C@@H](CCCCN)C(=O)N[C@@H](Cc1c[nH]c2ccccc12)C(=O)N[C@@H](CCCCN)C(=O)N[C@@H](Cc1c[nH]c2ccccc12)C(=O)O [C4] (H-WKWKWENGKWKWKW-OH),64 µM,32 µM,32 µM,32 µM,,8 µM,2 µM
NCCCC[C@H](NC(=O)CNC(=O)[C@H](CC(N)=O)NC(=O)[C@H](CCC(=O)O)NC(=O)[C@H](Cc1c[nH]c2ccccc12)NC(=O)[C@H](CCCCN)NC(=O)[C@H](Cc1c[nH]c2ccccc12)NC(=O)[C@H](CCCCN)NC(=O)[C@@H](N)Cc1c[nH]c2ccccc12)C(=O)N[C@@H](Cc1c[nH]c2ccccc12)C(=O)N[C@@H](CCCCN)C(=O)N[C@@H](Cc1c[nH]c2ccccc12)C(=O)N[C@@H](CCC(N)=O)C(=O)N[C@@H](Cc1c[nH]c2ccccc12)C(=O)O [C3] (H-WKWKWENGKWKWQW-OH),>128 µM,64 µM,>128 µM,>128 µM,,16 µM,32 µM
CC(C)C[C@H](NC(=O)CNC(=O)CNC(=O)CNC(=O)[C@H](Cc1c[nH]c2ccccc12)NC(=O)[C@H](CCCCN)NC(=O)[C@H](Cc1c[nH]c2ccccc12)NC(=O)[C@H](CCCCN)NC(=O)[C@H](Cc1c[nH]c2ccccc12)NC(=O)[C@H](CCCCN)NC(=O)CNC(=O)[C@H](CC(N)=O)NC(=O)[C@H](CCCCN)NC(=O)[C@H](Cc1c[nH]c2ccccc12)NC(=O)[C@H](CCCCN)NC(=O)[C@H](Cc1c[nH]c2ccccc12)NC(=O)[C@H](CCCCN)NC(=O)[C@@H](N)Cc1c[nH]c2ccccc12)C(=O)N[C@H](C(=O)N[C@H](C(=O)N[C@@H](CC(C)C)C(=O)N[C@H](C(=O)N[C@@H](Cc1ccccc1)C(=O)N[C@H](C(=O)O)C(C)C)C(C)C)[C@@H](C)O)C(C)C [C6-cCF10] (H-WKWKWKNGKWKWKWGGGLVTLVFV-OH),16 µM,>128 µM,32 µM,8 µM,,8 µM,2 µM
CC(C)C[C@H](NC(=O)[C@@H](NC(=O)[C@@H](NC(=O)[C@@H](N)CC(C)C)C(C)C)[C@@H](C)O)C(=O)N[C@H](C(=O)N[C@@H](Cc1ccccc1)C(=O)N[C@H](C(=O)NCC(=O)NCC(=O)NCC(=O)N[C@@H](Cc1c[nH]c2ccccc12)C(=O)N[C@@H](CCCCN)C(=O)N[C@@H](Cc1c[nH]c2ccccc12)C(=O)N[C@@H](CCCCN)C(=O)N[C@@H](Cc1c[nH]c2ccccc12)C(=O)N[C@@H](CCC(=O)O)C(=O)N[C@@H](CC(N)=O)C(=O)NCC(=O)N[C@@H](CCCCN)C(=O)N[C@@H](Cc1c[nH]c2ccccc12)C(=O)N[C@@H](CCCCN)C(=O)N[C@@H](Cc1c[nH]c2ccccc12)C(=O)N[C@@H](CCC(N)=O)C(=O)N[C@@H](Cc1c[nH]c2ccccc12)C(=O)O)C(C)C)C(C)C [cCF10-C3] (H-LVTLVFVGGGWKWKWENGKWKWQW-OH),>128 µM,>128 µM,>128 µM,>128 µM,,>128 µM,>128 µM
CC[C@H](C)[C@H](NC(=O)[C@H](Cc1ccccc1)NC(=O)[C@H](CS)NC(=O)[C@@H](NC(=O)[C@H](CO)NC(=O)[C@@H](N)Cc1ccc(O)cc1)[C@@H](C)O)C(=O)N[C@@H](CCSC)C(=O)NCC(=O)NCC(=O)NCC(=O)N[C@@H](Cc1c[nH]c2ccccc12)C(=O)N[C@@H](CCCCN)C(=O)N[C@@H](Cc1c[nH]c2ccccc12)C(=O)N[C@@H](CCCCN)C(=O)N[C@@H](Cc1c[nH]c2ccccc12)C(=O)N[C@@H](CCC(=O)O)C(=O)N[C@@H](CC(N)=O)C(=O)NCC(=O)N[C@@H](CCCCN)C(=O)N[C@@H](Cc1c[nH]c2ccccc12)C(=O)N[C@@H](CCCCN)C(=O)N[C@@H](Cc1c[nH]c2ccccc12)C(=O)N[C@@H](CCCCN)C(=O)N[C@@H](Cc1c[nH]c2ccccc12)C(=O)O [random-C4] (H-YSTCFIMGGGWKWKWENGKWKWKW-OH),>128 µM,>128 µM,>128 µM,>128 µM,,>128 µM,32 µM
"CC(C)C[C@H](NC(=O)[C@@H](NC(=O)[C@@H](NC(=O)[C@@H](N)CC(C)C)C(C)C)[C@@H](C)O)C(=O)N[C@H](C(=O)N[C@@H](Cc1ccccc1)C(=O)N[C@H](C(=O)O)C(C)C)C(C)C [cCF10, reference compound] (H-LVTLVFV-OH)",>128 µM,>128 µM,>128 µM,>128 µM,,>128 µM,>128 µM

# Source: PMC6976587, “Conversion of Broad-Spectrum Antimicrobial Peptides into Species-Specific Antimicrobials Capable of Precisely Targeting Pathogenic Bacteria” (Scientific Reports, 2020)
